# Measured values published in patent publication US12274689B2, “Compound for the management of feline diabetes” (INCREVET, INC., priority 2019, dated 2025).
# What was measured:
# [1] = system: healthy purpose-bred cats; assay: urinary glucose excretion in healthy cats after capsule dosing (studies 1 and 2); type: in vivo, cat
# db/db mice = assay: non-fasting blood glucose in db/db mice, 28-day oral dosing (study 350); type: in vivo; conditions: for non-fasting blood glucose concentration: n = 8
# [2] = system: client-owned cats diagnosed with diabetes mellitus; assay: field effectiveness study in client-owned diabetic cats; type: in vivo, cat; design: mean serum glucose: unit: mg/dL
# Description: In a field effectiveness study, client-owned cats that had been diagnosed with diabetes mellitus based on: i) two separate fasting (≥6 h) blood glucose measurements>250 mg dL^−1; ii) glucosuria; iii) fructosamine>450 μmol L^−1 (subsequently changed to >360 μmol L^−1 due to a change in the testing laboratory methodology), and iv) one or more of the following: polyuria/polydipsia, polyphagia and/or weight loss (documented in the cat's medical records) were enrolled. Cats with suspected diabetes mellitus were evaluated during visit 1 (within 7 days prior to day 0). […] Cats were prescribed a diet for diabetic animals (Purina DM, either dry or wet variety). Cats were returned to the clinic for evaluation of glycemic control during visits 3 (day 14±3), 4 (day 28±3), and 5 (day 56±3). The treatment period was from visit 2 (day 0) through visit 5 (day 56±3). A cat could have been brought back to the clinic at any time for unscheduled visits if such visits were determined to be necessary by the owner or investigator. Eight-hour blood glucose curves (blood samples collected every 2 h±15 min for 8 h) were conducted at every visit starting with visit 2 (day 0) and blood glucose was measured using an AlphaTRAK 2 glucometer (Abbott Laboratories). Blood samples for hematology and serum chemistry were collected at screening and during each scheduled visit after initiation of dosing. A central laboratory was used to evaluate all clinical pathology samples (blood, serum, and urine) that are not analyzed in the clinic for blood glucose curves.
# Serum chemistries included assessment of fructosamine. […] To accommodate the change in reference range, data were harmonized by expression as a percentage of the upper limit of normal and log-transformed percentages were analyzed by repeated measures ANCOVA with an unstructured covariance and visit as a fixed effect. The upper limit of normal for the testing laboratory for fasting serum glucose was 155 mg dL^−1. The data below were tabulated after 32 cats completed the day 56 visit.
# Each cat was classified as having achieved (or not achieved) glycemic control on Day 56±3 (success/failure). Treatment success was defined as improvement of at least one blood glucose variable (BG mean<250 mg dL^−1; or fructosamine<450 μmol/L or <360 μmol/L, depending on the assay reference range at the time of the analysis), and the veterinarian's assessment of adequate glycemic control at the final evaluation. All cats that remained on-study to V5 were considered treatment successes. Of the 8 cats that were considered treatment failures, 6 cats were removed from the study following an SAE, 1 cat was removed at the sponsor's request, and 1 cat was removed due to the use of a study-proscribed medication to treat an AE. Table 3 also tallies the cats achieving a fructosamine concentration less than the upper limit of normal (356 μmol L^−1 initially and 275 μmol L^−1 subsequently).
# Responsibility for assessing clinical signs of diabetes mellitus was divided between owners and treating veterinarians. Weight was recorded at each visit by the veterinarian, and the signs of polydipsia, polyuria and polyphagia were recorded at each visit by the owner, using a four-point (0 to 3) integer score in which low scores represented favorable ratings.
# In addition to providing a measure of the status of the cat as a function of time, the quantitative assessments were used to produce a binary outcome of success or failure at study completion. To score as a success by weight, the weight at Visit 5 was to exceed the weight at Visit 2 (treatment initiation). To score as success by the other signs the owner score at visit 5 was to be less than the owner score at Visit 2.
# Glucose curves were constructed by glucometer measurement of blood sampled at hours 0, 2, 4, 6 and 8 post-dose. […]
# [3] = by visit, non-parametric test highly significant
structure (smiles),measurement,setting,value
"OC[C@H]1O[C@@H](c2ccc(Cl)c(Cc3ccc(OCCOC4CC4)cc3)c2)[C@H](O)[C@@H](O)[C@@H]1O [bexagliflozin, (2S,3R,4R,5S,6R)-2-(4-chloro-3-(4-(2-cyclopropoxyethoxy)benzyl)phenyl)-6-(hydroxymethyl)tetrahydro-2H-pyran-3,4,5-triol]","doses with undesired effects attributed to SGLT1 inhibition, multiple of doses producing the maximum pharmacodynamic effect",[1]; healthy cats,5 to 10 times
same,loose stools and/or diarrhea,[1]; healthy cats exposed to the higher quantities,dose-dependent increase in the severity of loose stools and/or diarrhea
same,dose at which the maximum glucosuria was observed,"[1]; healthy cats, gelatin capsules, urinary glucose excretion over 24 h after dosing",approximately 3 mg kg^−1
same,non-fasting blood glucose concentration,"db/db mice; 0.067 mg kg^−1 oral once a day, Day 0, mean ± SD",565.5 ± 75.9 mg/dL
same,non-fasting blood glucose concentration,"db/db mice; 0.067 mg kg^−1 oral once a day, Day 1, 6 h post-dose, mean ± SD",526.0 ± 97.0 mg/dL
same,non-fasting blood glucose concentration,"db/db mice; 0.067 mg kg^−1 oral once a day, Day 7, 6 h post-dose, mean ± SD",459.5 ± 69.9 mg/dL
same,non-fasting blood glucose concentration,"db/db mice; 0.067 mg kg^−1 oral once a day, Day 14, 6 h post-dose, mean ± SD",441.7 ± 119.6 mg/dL
same,non-fasting blood glucose concentration,"db/db mice; 0.067 mg kg^−1 oral once a day, Day 21, 6 h post-dose, mean ± SD",497.5 ± 98.8 mg/dL
same,non-fasting blood glucose concentration,"db/db mice; 0.067 mg kg^−1 oral once a day, Day 28, 6 h post-dose, mean ± SD",472.1 ± 113.3 mg/dL
same,non-fasting blood glucose concentration,"db/db mice; 0.067 mg kg^−1 oral once a day, Day −3, mean ± SD",563.6 ± 105.2 mg/dL
same,non-fasting blood glucose concentration,"db/db mice; 0.2 mg kg^−1 oral once a day, Day 0, mean ± SD",590.0 ± 92.9 mg/dL
same,non-fasting blood glucose concentration,"db/db mice; 0.2 mg kg^−1 oral once a day, Day 1, 6 h post-dose, mean ± SD",411.3 ± 86.8 mg/dL
same,non-fasting blood glucose concentration,"db/db mice; 0.2 mg kg^−1 oral once a day, Day 7, 6 h post-dose, mean ± SD",390.8 ± 92.3 mg/dL
same,non-fasting blood glucose concentration,"db/db mice; 0.2 mg kg^−1 oral once a day, Day 14, 6 h post-dose, mean ± SD",364.7 ± 121.6 mg/dL
same,non-fasting blood glucose concentration,"db/db mice; 0.2 mg kg^−1 oral once a day, Day 21, 6 h post-dose, mean ± SD",379.8 ± 47.4 mg/dL
same,non-fasting blood glucose concentration,"db/db mice; 0.2 mg kg^−1 oral once a day, Day 28, 6 h post-dose, mean ± SD",333.5 ± 79.9 mg/dL
same,non-fasting blood glucose concentration,"db/db mice; 0.2 mg kg^−1 oral once a day, Day −3, mean ± SD",546.9 ± 92.8 mg/dL
same,non-fasting blood glucose concentration,"db/db mice; 0.67 mg kg^−1 oral once a day, Day 0, mean ± SD",574.4 ± 90.5 mg/dL
same,non-fasting blood glucose concentration,"db/db mice; 0.67 mg kg^−1 oral once a day, Day 1, 6 h post-dose, mean ± SD",404.3 ± 86.4 mg/dL
same,non-fasting blood glucose concentration,"db/db mice; 0.67 mg kg^−1 oral once a day, Day 7, 6 h post-dose, mean ± SD",370.1 ± 96.5 mg/dL
same,non-fasting blood glucose concentration,"db/db mice; 0.67 mg kg^−1 oral once a day, Day 14, 6 h post-dose, mean ± SD",379.6 ± 58.6 mg/dL
same,non-fasting blood glucose concentration,"db/db mice; 0.67 mg kg^−1 oral once a day, Day 21, 6 h post-dose, mean ± SD",300.6 ± 97.6 mg/dL
same,non-fasting blood glucose concentration,"db/db mice; 0.67 mg kg^−1 oral once a day, Day 28, 6 h post-dose, mean ± SD",306.7 ± 98.4 mg/dL
same,non-fasting blood glucose concentration,"db/db mice; 0.67 mg kg^−1 oral once a day, Day −3, mean ± SD",565.5 ± 87.5 mg/dL
same,non-fasting blood glucose concentration,"db/db mice; 2 mg kg^−1 oral once a day, Day 0, mean ± SD",541.6 ± 84.4 mg/dL
same,non-fasting blood glucose concentration,"db/db mice; 2 mg kg^−1 oral once a day, Day 1, 6 h post-dose, mean ± SD",382.7 ± 111.9 mg/dL
same,non-fasting blood glucose concentration,"db/db mice; 2 mg kg^−1 oral once a day, Day 7, 6 h post-dose, mean ± SD",330.8 ± 101.1 mg/dL
same,non-fasting blood glucose concentration,"db/db mice; 2 mg kg^−1 oral once a day, Day 14, 6 h post-dose, mean ± SD",303.5 ± 74.0 mg/dL
same,non-fasting blood glucose concentration,"db/db mice; 2 mg kg^−1 oral once a day, Day 21, 6 h post-dose, mean ± SD",319.7 ± 74.2 mg/dL
same,non-fasting blood glucose concentration,"db/db mice; 2 mg kg^−1 oral once a day, Day 28, 6 h post-dose, mean ± SD",315.2 ± 81.3 mg/dL
same,non-fasting blood glucose concentration,"db/db mice; 2 mg kg^−1 oral once a day, Day −3, mean ± SD",603.9 ± 88.9 mg/dL
same,"blood glucose values, % of control",db/db mice; 28-day administration of 0.067 mg kg^−1,79.74%
same,"blood glucose values, % of control",db/db mice; 28-day administration of 0.2 mg kg^−1,56.33%
same,"blood glucose values, % of control",db/db mice; 28-day administration of 0.67 mg kg^−1,51.81%
same,"blood glucose values, % of control",db/db mice; 28-day administration of 2 mg kg^−1,53.25%
same,"blood glucose, level below which it was not reduced","db/db mice; sole agent, any dose group",≥ 300 mg/dL
same,treatment effect on the gain in body mass per cat,"[2]; baseline to week 8, p<0.0001",highly significant
same,cats that either maintained or increased their weight,[2]; by day 56,82%
same,mean owner scores for polydipsia,[2]; [3],declined
same,mean owner scores for polyuria,[2]; [3],declined
same,mean owner scores for polyphagia,"[2]; by visit, non-parametric test significant",declined
same,weight of case 5 at study end,"[2]; case 5, decreased from 5.4 kg",5.1 kg
same,treatment outcome of cats with IGF-1 above the upper limit of normal (92 nmol/L),"[2]; cases 7, 28 and 30, V5",All three cases were considered treatment successes
same,symptomatic hypoglycemia,"[2]; diabetic cats, field study",None of the cats exhibited a symptomatic hypoglycemia
same,Veterinarian Glycemic Control Criteria Met,"[2]; individual cats, V5",Yes
same,Mean BG Criteria Met,"[2]; individual cats, V5, BG mean <250 mg dL^−1",Yes
same,cats removed from the study following an SAE,[2]; of 40 cats enrolled,6 cats
same,"Any Success, Col Sum (number of cats)",[2]; of 40 enrolled cats,31
same,"Non-Weight Success, Col Sum (number of cats)",[2]; of 40 enrolled cats,30
same,"Polydipsia Success, Col Sum (number of cats)",[2]; of 40 enrolled cats,23
same,"Polyphagia Success, Col Sum (number of cats)",[2]; of 40 enrolled cats,17
same,"Polyuria Success, Col Sum (number of cats)",[2]; of 40 enrolled cats,24
same,"Weight Success, Col Sum (number of cats)",[2]; of 40 enrolled cats,22
same,cats achieving a fructosamine concentration below the upper limit of normal,[2]; of the 32 cats completing the study,26 cats
same,average cat weight,[2]; over the course of the study,increased
same,cats considered treatment successes,"[2]; thirty-two of the 40 cats enrolled, Day 56±3",80%
same,fructosamine of cats with elevated IGF-1,[2]; three cats with elevated serum IGF-1,achieved a normal fructosamine concentration
same,mean serum β-hydroxybutyrate concentration,"[2]; week 8, 95% CI 1.40, 2.20, upper limit of normal 1.9 mg dL^−1",1.76 mg/dL
same,"mean serum fructosamine, % of the upper limit of normal","[2]; week 8, 95% CI 80.0%, […]",86.7%
same,mean serum glucose,"[2]; week 8, 95% CI 127, 163",144
same,mean of the five blood glucose determinations,"[2]; week 8, in-clinic blood glucose curve, 95% CI 102.8, 128.4",114.9 mg/dL
